Laboratory results reported in patent US20230081426A1, “COMPOUNDS AND METHODS FOR KRAS MODULATION AND INDICATIONS THEREFOR” (Plexxikon Inc., priority 2020, published 2023).

Experiments:
[1] = target: T1, G12C-mutant human KRAS (amino acid residues 1-188) (Homo sapiens, UniProt P01116, G12C); experiment: KRAS Binding Disruption Assay (AlphaScreen; biotinylated KRpep-2d analogue or RAF1-RBD), G12C; conditions: geometric mean, read-out: KRAS GMean IC50 (uM) MUTATION: G12C
T1 construct: G12D or G12C-mutant human KRAS (amino acid residues 1-188) with FLAG tag; made in house; host or cells: E. coli
Summary of the method: (§1)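 AlphaScreen readout: signal falls as compound displaces biotinylated KRpep-2d analogue or RAF1-RBD from mutant KRAS. Both partners at 5-20 nM, 1 h binding at 25° C, then 10 μg/mL Anti-Flag acceptor and streptavidin donor beads for 1 h. IC50 by nonlinear regression of % inhibition.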

[2] = target: T2, G12D-mutant human KRAS (amino acid residues 1-188) (Homo sapiens, UniProt P01116, G12D); experiment: KRAS Binding Disruption Assay (AlphaScreen; biotinylated KRpep-2d analogue or RAF1-RBD), G12D; conditions: KRAS G12D; geometric mean; read-out: KRAS GMean IC50 (uM) MUTATION: G12D
T2 construct: G12D or G12C-mutant human KRAS (amino acid residues 1-188) with FLAG tag; made in house; host or cells: E. coli
Summary of the method: as §1

T1 sequence (P01116 1-188 isoform P01116-2 G12C): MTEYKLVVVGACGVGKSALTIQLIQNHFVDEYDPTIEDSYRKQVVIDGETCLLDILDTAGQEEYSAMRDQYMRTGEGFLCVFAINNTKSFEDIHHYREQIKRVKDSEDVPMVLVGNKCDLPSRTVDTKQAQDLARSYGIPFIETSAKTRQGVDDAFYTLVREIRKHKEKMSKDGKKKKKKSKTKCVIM
T2 sequence (P01116 1-188 isoform P01116-2 G12D): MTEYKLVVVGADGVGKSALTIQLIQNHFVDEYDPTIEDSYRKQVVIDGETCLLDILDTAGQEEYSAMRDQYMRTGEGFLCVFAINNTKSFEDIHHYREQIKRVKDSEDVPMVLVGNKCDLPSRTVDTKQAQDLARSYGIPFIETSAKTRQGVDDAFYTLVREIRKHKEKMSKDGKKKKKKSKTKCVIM

Structure (SMILES)	IC50 [1] [µM]	IC50 [2] [µM]
NC(=O)N1[C@@H]2CC[C@H]1CN(c1nc(OCC34CCCN3CCC4)nc3c(F)c(-c4cc(O)cc5ccccc45)ccc13)C2 [P-0660, (1R,5S)-3-(8-fluoro-7-(3-hydroxynaphthalen-1-yl)-2-((tetrahydro-1H-pyrrolizin-7a(5H)-yl)methoxy)quinazolin-4-yl)-3,8-diazabicyclo[3.2.1]octane-8-carboxamide]	0.0001 to 10	0.0001 to 10
Oc1cc(-c2ccc3c(N4C[C@H]5CC[C@@H](C4)N5)nc(NCC4CCOCC4)nc3c2F)c2ccccc2c1 [P-0701, 4-(4-((1R,5S)-3,8-diazabicyclo[3.2.1]octan-3-yl)-8-fluoro-2-(((tetrahydro-2H-pyran-4-yl)methyl)amino)quinazolin-7-yl)naphthalen-2-ol]	100 to 1000	0.0001 to 10
O=C(O)COc1nc(N2C[C@H]3CC[C@@H](C2)N3)c2ccc(-c3cc(O)cc4ccccc34)c(F)c2n1 [P-0745, 2-((4-((1R,5S)-3,8-diazabicyclo[3.2.1]octan-3-yl)-8-fluoro-7-(3-hydroxynaphthalen-1-yl)quinazolin-2-yl)oxy)acetic acid]	10 to 100	0.0001 to 10
CN1CCC2CN(c3nc(N4C[C@H]5CC[C@@H](C4)N5)c4ccc(-c5cc(O)cc6ccccc56)c(F)c4n3)CC21 (stereo partly drawn) [P-0705, 4-(4-((1R,5S)-3,8-diazabicyclo[3.2.1]octan-3-yl)-8-fluoro-2-(1-methylhexahydropyrrolo[3,4-b]pyrrol-5(1H)-yl)quinazolin-7-yl)naphthalen-2-ol]	10 to 100	0.0001 to 10
CCc1cccc2[nH]cc(-c3ccc4c(N5C[C@H]6CC[C@@H](C5)N6)nc(OCC56CCCN5CCC6)nc4c3F)c12 [P-0699, 4-((1R,5S)-3,8-diazabicyclo[3.2.1]octan-3-yl)-7-(4-ethyl-1H-indol-3-yl)-8-fluoro-2-((tetrahydro-1H-pyrrolizin-7a(5H)-yl)methoxy)quinazoline]	0.0001 to 10	0.0001 to 10
Oc1cc(-c2ccc3c(N4C[C@H]5CC[C@@H](C4)N5)nc(OCC4CC(F)(F)C4(F)F)nc3c2F)c2ccccc2c1 (stereo partly drawn) [P-0740, 4-(4-((1R,5S)-3,8-diazabicyclo[3.2.1]octan-3-yl)-8-fluoro-2-((2,2,3,3-tetrafluorocyclobutyl)methoxy)quinaz-olin-7-yl)naphthalen-2-ol]	10 to 100	0.0001 to 10
CN1CCC[C@H]1COc1nc(N2C[C@H]3CC[C@@H](C2)N3)c2cc(F)c(-c3c[nH]c4ccc(Cl)nc34)c(F)c2n1 [P-0756, 4-((1R,5S)-3,8-diazabicyclo[3.2.1]octan-3-yl)-7-(5-chloro-1H-pyrrolo[3,2-b]pyridin-3-yl)-6,8-difluoro-2-(((S)-1-methylpyrrolidin-2-yl)methoxy)quinazoline]	100 to 1000	0.0001 to 10
Oc1cc(-c2ccc3c(N4C[C@H]5CC[C@@H](C4)N5)nc(OCCn4cccn4)nc3c2F)c2ccccc2c1 [P-0690, 4-(2-(2-(1H-pyrazol-1-yl)ethoxy)-4-((1R,5S)-3,8-diazabicyclo[3.2.1]octan-3-yl)-8-fluoroquinazolin-7-yl)naphthalen-2-ol]	10 to 100	0.0001 to 10
Oc1cc(-c2ccc3c(N4C[C@H]5CC[C@@H](C4)N5)nc(OCCn4cccc4)nc3c2F)c2ccccc2c1 [P-0691, 4-(2-(2-(1H-pyrrol-1-yl)ethoxy)-4-((1R,5S)-3,8-diazabicyclo[3.2.1]octan-3-yl)-8-fluoroquinazolin-7-yl)naphthalen-2-ol]	10 to 100	0.0001 to 10
Oc1cc(-c2ccc3c(N4C[C@H]5CC[C@@H](C4)N5)nc(OCC4CCC4)nc3c2F)c2ccccc2c1 [P-0750, 4-(4-((1R,5S)-3,8-diazabicyclo[3.2.1]octan-3-yl)-2-(cyclobutylmethoxy)-8-fluoroquinazolin-7-yl)naphthalen-2-ol]	10 to 100	0.0001 to 10
N#CC1CC(COc2nc(N3C[C@H]4CC[C@@H](C3)N4)c3ccc(-c4cc(O)cc5ccccc45)c(F)c3n2)C1 (stereo partly drawn) [P-0751, 3-(((4-((1R,5S)-3,8-diazabicyclo[3.2.1]octan-3-yl)-8-fluoro-7-(3-hydroxynaphthalen-1-yl)quinazolin-2-yl)oxy)methyl)cyclobutane-1-carbonitrile]	10 to 100	0.0001 to 10
O=C1NCCC1COc1nc(N2C[C@H]3CC[C@@H](C2)N3)c2ccc(-c3cc(O)cc4ccccc34)c(F)c2n1 (stereo partly drawn) [P-0767, 3-(((4-((1R,5S)-3,8-diazabicyclo[3.2.1]octan-3-yl)-8-fluoro-7-(3-hydroxynaphthalen-1-yl)quinazolin-2-yl)oxy)methyl)pyrrolidin-2-one]	10 to 100	0.0001 to 10
OCCCc1nc(N2C[C@H]3CC[C@@H](C2)N3)c2ccc(-c3cc(O)cc4ccccc34)c(F)c2n1 [P-0811, 4-(4-((1R,5S)-3,8-diazabicyclo[3.2.1]octan-3-yl)-8-fluoro-2-(3-hydroxypropyl)quinazolin-7-yl)naphthalen-2-ol]	100 to 1000	0.0001 to 10
COC(C)(C)COc1nc(N2C[C@H]3CC[C@@H](C2)N3)c2ccc(-c3cc(O)cc4ccccc34)c(F)c2n1 [P-0720, 4-(4-((1R,5S)-3,8-diazabicyclo[3.2.1]octan-3-yl)-8-fluoro-2-(2-methoxy-2-methylpropoxy)quinazolin-7-yl)naphthalen-2-ol]	10 to 100	0.0001 to 10
COc1cccc2[nH]cc(-c3c(F)cc4c(N5C[C@H]6CC[C@@H](C5)N6)nc(OC[C@@H]5CCCN5C)nc4c3F)c12 [P-0797, 4-((1R,5S)-3,8-diazabicyclo[3.2.1]octan-3-yl)-6,8-difluoro-7-(4-methoxy-1H-indol-3-yl)-2-(((S)-1-methylpyrrolidin-2-yl)methoxy)quinazoline]	10 to 100	0.0001 to 10
CN1CCC[C@H]1COc1nc(N2C[C@H]3CC[C@@H](C2)N3)c2ccc(-c3cccc4ccccc34)c(F)c2n1 [P-0783, 4-((1R,5S)-3,8-diazabicyclo[3.2.1]octan-3-yl)-8-fluoro-2-(((S)-1-methylpyrrolidin-2-yl)methoxy)-7-(naphthalen-1-yl)quinazoline]	100 to 1000	0.0001 to 10
Oc1cc(-c2ccc3c(N4C[C@H]5CC[C@@H](C4)N5)nc(OCC4CC(F)(F)C4)nc3c2F)c2ccccc2c1 [P-0778, 4-(4-((1R,5S)-3,8-diazabicyclo[3.2.1]octan-3-yl)-2-((3,3-difluorocyclobutyl)methoxy)-8-fluoroquinazolin-7-yl)naphthalen-2-ol]	10 to 100	0.0001 to 10
CCc1c(F)ccc2[nH]cc(-c3c(F)cc4c(N5C[C@H]6CC[C@@H](C5)N6)nc(OCC56CCCN5CCC6)nc4c3F)c12 [P-0710, 4-((1R,5S)-3,8-diazabicyclo[3.2.1]octan-3-yl)-7-(4-ethyl-5-fluoro-1H-indol-3-yl)-6,8-difluoro-2-((tetrahydro-1H-pyrrolizin-7a(5H)-yl)methoxy)quinazoline]	0.0001 to 10	0.0001 to 10
Oc1cc(-c2ccc3c(N4C[C@H]5CC[C@@H](C4)N5)nc(N4CC(N5CC(F)C5)C4)nc3c2F)c2ccccc2c1 [P-0638, 4-(4-((1R,5S)-3,8-diazabicyclo[3.2.1]octan-3-yl)-8-fluoro-2-(3-fluoro-[1,3′-biazetidin]-1′-yl)quinazolin-7-yl)naphthalen-2-ol]	10 to 100	0.0001 to 10
CC(C)(O)CCOc1nc(N2C[C@H]3CC[C@@H](C2)N3)c2ccc(-c3cc(O)cc4ccccc34)c(F)c2n1 [P-0656, 4-(4-((1R,5S)-3,8-diazabicyclo[3.2.1]octan-3-yl)-8-fluoro-2-(3-hydroxy-3-methylbutoxy)quinazolin-7-yl)naphthalen-2-ol]	10 to 100	0.0001 to 10
CN(C)C(=O)CCNc1nc(N2C[C@H]3CC[C@@H](C2)N3)c2ccc(-c3cc(O)cc4ccccc34)cc2n1 [P-0058, 3-((4-((1R,5S)-3,8-diazabicyclo[3.2.1]octan-3-yl)-7-(3-hydroxynaphthalen-1-yl)quinazolin-2-yl)amino)-N,N-dimethylpropanamide]	10 to 100	10 to 100
O=C1CCC(=O)N1CCOc1nc(N2C[C@H]3CC[C@@H](C2)N3)c2ccc(-c3cc(O)cc4ccccc34)c(F)c2n1 [P-0694, 1-(2-((4-((1R,5S)-3,8-diazabicyclo[3.2.1]octan-3-yl)-8-fluoro-7-(3-hydroxynaphthalen-1-yl)quinazolin-2-yl)oxy)ethyl)pyrrolidine-2,5-dione]	10 to 100	0.0001 to 10
CCc1c(F)ccc2[nH]cc(-c3ccc4c(N5C[C@H]6CC[C@@H](C5)N6)nc(OCC56CCCN5CCC6)nc4c3F)c12 [P-0709, 4-((1R,5S)-3,8-diazabicyclo[3.2.1]octan-3-yl)-7-(4-ethyl-5-fluoro-1H-indol-3-yl)-8-fluoro-2-((tetrahydro-1H-pyrrolizin-7a(5H)-yl)methoxy)quinazoline]	0.0001 to 10	0.0001 to 10
Fc1ccc2[nH]cc(-c3c(Cl)cc4c(N5C[C@H]6CC[C@@H](C5)N6)nc(OCC56CCCN5CCC6)nc4c3F)c2c1F [P-0765, 4-((1R,5S)-3,8-diazabicyclo[3.2.1]octan-3-yl)-6-chloro-7-(4,5-difluoro-1H-indol-3-yl)-8-fluoro-2-((tetrahydro-1H-pyrrolizin-7a(5H)-yl)methoxy)quinazoline]	0.0001 to 10	0.0001 to 10
COc1cccc2ncnc(-c3ccc4c(N5C[C@H]6CC[C@@H](C5)N6)nc(OC[C@@H]5CCCN5C)nc4c3F)c12 [P-0727, 4′-((1R,5S)-3,8-diazabicyclo[3.2.1]octan-3-yl)-8′-fluoro-5-methoxy-2′-(((S)-1-methylpyrrolidin-2-yl)methoxy)-4,7′-biquinazoline]	100 to 1000	100 to 1000
